Assay results: the METLIN SMRT retention time set (Domingo-Almenara et al. 2019)

Assay: gradient 5% acetonitrile 3 min, to 50% in 2 min, to 85% in 15 min, held 3 min, 100 µL/min
Details: column: Zorbax Extend-C18 2.1 x 50 mm; eluents: water / acetonitrile, 0.1% formic acid
Method in brief: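 Values are retention times taken from adduct peaks that software picked and an analyst inspected. The pure standards were run as mixtures of ~100 molecules on HPLC linked to a quadrupole time-of-flight mass spectrometer, in positive and negative ionization mode. A Zorbax Extend-C18 column (2.1 × 50 mm, 1.8 μm) was used at 100 μL/min with water and acetonitrile, each including 0.1% formic acid.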

Row | RP-LC retention time [s] | Structure (SMILES)
1 | 766 | CCN(CC)S(=O)(=O)c1ccc(-n2cnc(C(=O)NCc3ccc(OC)c(OC)c3)c2)cc1
2 | 639 | CC(C)n1c(CCNC(=O)c2ccc(C#N)cc2)nc2cccnc21
3 | 808 | CCN1C(=O)c2cccnc2Sc2cc(NC(=O)c3c(F)cccc3F)ccc21
4 | 746 | CCNc1cc(C)nc(N2CCN(C(=O)c3ccc(-c4ccccc4)cc3)CC2)n1
5 | 807 | COc1cccc(-c2noc(-c3nn(-c4cccc(F)c4)ccc3=O)n2)c1OC
6 | 817 | COc1ccc(Cn2nnc3cc(C(=O)Nc4cc(C)on4)ccc32)cc1
7 | 732 | Cc1ccc(S(=O)(=O)Nc2ccc(Cn3cncn3)cc2)cc1F
8 | 683 | O=C(NCCc1ccccc1)NCCn1c(-c2ccccc2)nc2cccnc21
9 | 876 | CCOC(=O)c1cc2n(n1)CC(C)(C(=O)NC1CCCC1)N(c1ccccc1F)C2=O (stereo unspecified)
10 | 814 | O=C1COc2ccc(S(=O)(=O)N3CCC(C(=O)NC4CCCc5ccccc54)CC3)cc2N1 (stereo unspecified)
11 | 937 | COc1ccc(NC(=O)Cc2csc3nc(-c4cccc(Br)c4)cn23)cc1
12 | 771 | COC(=O)c1c(-c2ccc(F)cc2)noc1NCc1ccccn1
13 | 1140 | COc1ccc(-c2ncc3c(n2)CCN(S(=O)(=O)c2ccc(Cl)s2)C3)cc1
14 | 1140 | CCCN1C(=O)COc2ccc(-c3noc(-c4cc(OC)c(OC)c(OC)c4)n3)cc21
15 | 574 | Cc1noc(C)c1CNC(=O)c1ccc2[nH]ccc2c1
16 | 1030 | CCn1cc(-c2nc(C)c(C(=O)N3CCc4ccccc43)s2)c2cccnc21

Row | RP-LC retention time [s] | Structure (SMILES)
17 | 808 | O=C(NCCc1cccs1)C1CCN(C(=O)c2ncn3c2COC(c2ccc(Cl)cc2)C3)CC1 (stereo unspecified)
18 | 660 | NS(=O)(=O)c1ccc(CCNC(=O)C2CN(c3nc4c(F)cccc4s3)C2)cc1
19 | 980 | CCOC(=O)Cc1c(C)nc2cc(-c3ccc(OC)cc3)nn2c1C
20 | 979 | Cn1cc(-c2ccccc2)cc1C(=O)NCc1cccs1
21 | 826 | Cc1noc(-c2cc(=O)n(CC(=O)NCc3ccccc3F)c3ccccc23)n1
22 | 915 | COCCCNC(=O)c1csc(N2CCN(c3ccc(F)cc3)CC2)n1
23 | 956 | CCCC(=O)Nc1nc(-c2ccc(OC)cc2)c(C)s1
24 | 660 | COCCn1cc(CCNC(=O)Nc2c(F)cccc2F)c2cccnc21
25 | 870 | CCN1C(=O)c2cccnc2Sc2cc(NC(=O)Cc3c(F)cccc3Cl)ccc21
26 | 1210 | CCOC(=O)c1noc2nc(C)nc(NCCc3ccc(Cl)cc3)c12
27 | 1240 | Cc1sc(NC(=O)c2ccc(F)cc2)nc1-c1ccc(Br)cc1
28 | 728 | O=C(CCCn1nc(-c2cccs2)ccc1=O)Nc1cccc2nsnc12
29 | 804 | COc1ccc(C(=O)N2CCCC(c3nnc(-c4ccccc4)o3)C2)cc1 (stereo unspecified)
30 | 822 | COc1ccc(Cl)cc1N(C)C(=O)C(=O)Nc1ccc2nc3n(c(=O)c2c1)CCCCC3
31 | 600 | CN(CC(=O)N1CCN(Cc2ccccc2)CC1)S(=O)(=O)c1ccc2c(c1)CCCC(=O)N2

Further lines, the compound ahead of its results:

Row | Structure (SMILES) | RP-LC retention time [s]
32 | O=C(C1CC(=O)N(c2n[nH]c3cccc(F)c23)C1)N1CCN(c2ccc(F)cc2)CC1 (stereo unspecified) | 740
33 | CCn1ccc(C(=O)N2CC[C@H]3N(CCOC)S(=O)(=O)CC[C@]3(C(=O)N3CCOCC3)C2)n1 | 622
34 | Cc1nc(N2CCCCC2)cc(N2CCN(C(=O)c3ccc(Br)o3)CC2)n1 | 689
35 | CC1(C)CC(=O)C2=C(C1)Nc1ccccc1N(CC(=O)Nc1ccccc1)C2c1ccc(F)cc1 (stereo unspecified) | 938
36 | O=C(Nc1ccc(F)cc1Cl)c1cccn1Cc1noc(C2CC2)n1 | 924
37 | COc1ccc(-c2noc(NC3CCCC3)n2)cc1 | 951
38 | COCC1CN(C(=O)c2ccc(Br)o2)CCC1(F)F (stereo unspecified) | 847
39 | COCC1CN(C2CCC2)CC12CCN(C(=O)c1ccsc1)CC2 (stereo unspecified) | 592
40 | Cc1oc2c(c1C(=O)Nc1ccc(F)c(F)c1)C1=NC(C)(C)CN1C=N2 | 655
41 | CC(C)CC(=O)Nc1ccc(-n2cnc(C(=O)N3CCSCC3)c2)nc1 | 709
42 | O=S(=O)(NCCC1=CCCCC1)c1ccc(-c2cc(C(F)(F)F)on2)o1 | 1240
43 | O=C(CSc1nccn1Cc1ccco1)NC1CCCCC1 | 589
44 | Cc1ccc(S(=O)(=O)N2CCCC(Cn3cnc4cccnc43)C2)cc1F (stereo unspecified) | 802
45 | CN1CCN(c2c(F)cc(C(=O)Nc3nc(-c4ccccc4)cs3)c(F)c2F)CC1 | 750
46 | COC(=O)c1ccccc1NC(=O)N1CCN(Cc2nc(-c3cccc(Cl)c3)oc2C)CC1 | 809
47 | O=C(COC(=O)C(c1ccccc1)c1ccccc1)Nc1ccc2c(c1)OCO2 | 940
48 | Cc1ccc(Cn2c(N3CCCC(C(=O)NCC4CC4)C3)nc3ccsc3c2=O)cc1 (stereo unspecified) | 894
49 | c1ccc2c(c1)CCN(Cc1nc(-c3ccc(N4CCCC4)nc3)no1)C2 | 583

Row | Structure (SMILES) | RP-LC retention time [s]
50 | CNC(=O)C1CCCN(c2nc3ncn(CC(=O)Nc4cccc(F)c4)c(=O)c3s2)C1 (stereo unspecified) | 645
51 | O=C(NCC1CCOCC1)Nc1cc(F)c(F)c(F)c1 | 755
52 | O=C(Nc1cc(F)cc(F)c1)N1CCC(CCNC(=O)C2(c3ccccc3)CC2)CC1 | 984
53 | O=C(c1cccnc1)N1CCCn2nc(-c3ccc(Cl)cc3)cc2C1 | 739
54 | O=C1CN(C(=O)CSc2ccccc2)c2ccccc2N1 | 694
55 | Cc1nc2c(c(N(C)CCc3c(C)nn(C)c3C)n1)CCC2 | 588
56 | O=C(C1=CN(c2ccc(F)c(Cl)c2)c2ccccc2S1(=O)=O)N1CCOCC1 | 786
57 | CCCN1CCCCc2cc(C(=O)NC3CCS(=O)(=O)C3)sc21 (stereo unspecified) | 884
58 | Cn1c(C2CCN(C(=O)Nc3ccccc3Br)CC2)cc(=O)n2nccc12 | 654
59 | CC(C)N1CCN(Cc2nc(-c3ccc(N4CCOCC4)nc3)no2)CC1 | 574
60 | O=C(Cn1c(=O)n(-c2ccccc2)c2ncccc21)NCCN1CCOCC1 | 585
61 | O=C(c1ccc(OCC2CCCN2C(=O)C2CCCC2)cc1)N1CCOCC1 (stereo unspecified) | 750
62 | Cc1ccc(-c2csc(Cc3nc(-c4ccc5c(c4)OCO5)no3)n2)cc1 | 1210
63 | CCc1ccc(S(=O)(=O)c2cnc(N3CCN(C4CCCCC4)CC3)nc2N)cc1 | 706
64 | O=C(C1CCN(c2nccnc2Sc2ccccc2)CC1)N1CCN(c2ccccn2)CC1 | 682
65 | O=C(c1cc(-c2ccncc2)n[nH]1)N1CCCC(C(=O)N2CCN(c3ccc(Cl)cc3)CC2)C1 (stereo unspecified) | 661
66 | Cc1nc(-c2cn(C)c3ncccc23)sc1C(=O)Nc1cc(F)cc(F)c1 | 1050
